Series [1] can be described thus: In vitro chemiluminescence kinetics of oxidation by H2O2. The method, then:
(§1) Solutions of 3 and luminol were prepared in 0.01 M PBS (pH of 7.4). For all ROS other than H2O2, the reaction was carried out by mixing 200 μL of the ROS solution (1.0×10^−3 M) with 800 μL of the solution of probe 3 or luminol (1.0×10^−6 M). The voltage of the photomultiplier tube (PMT) was set at −400 V. In the case of H2O2, 200 μL of its solution (1.0×10^−2 M) was used, and the voltage of PMT was set at −800 V; the other conditions were identical to those used for the other ROS.

The test system of another series is acute dermatitis. In words: CLI of acute dermatitis induced by dimethylbenzene. In kind it is in vivo, mice. Particulars: 720 μg/kg; 30, 60, 90 min.
For another series, the system named is gingival hemorrhage. Briefly: CLI of gingival hemorrhage. The class given is in vivo, nude mice. Particulars: 200 μL of 2.0×10^−4 M. How it is done:
(§2) Additional experiments were carried out using test mice suffering from gingival hemorrhage and mechanical injury. For example, nude mice were fed with cooked yolk for 1 week until gingival hemorrhage was visually identified. Various images were acquired (e.g., 0, 20 (supine position), and 30 min (prone position)) after the injection of 200 μL of 2.0×10^−4 M probe 3 or luminol (data not shown). […] Also, images of injuries (e.g., mechanical crush and syringe needle piecing, both on the end to tail) were acquired 0, 20, and 40 min, respectively, after the injection of 200 μL of probe 3 (2.0×10^−4 M).

Series [2] concerns raw 264.7 cells; human monocyte. In words: In vitro response to phagocyte respiratory burst. The class given is cell-based. The note with it: 5.0×10^−5 M; PMA or FMLP 100 μg/ml. How it is done: No chemiluminescence was detected in the absence of phorbol 12-myristate 13-acetate for (PMA) or N-formylmethionyl-leucyl-phenyl-alanine (FMLP). (a) CL kinetics resulting from the response of probe 3 to respiratory burst of raw 264.7 cells when stimulated with PMA (100 μg/ml). (b) CL kinetics resulting from the response of probe 3 to respiratory burst of human monocyte (10^6 cells/ml) in hank's when stimulated by FMLP (100 μg/ml). The kinetics curves were recorded with an MPI-A Chemiluminescence Analyzer with the use of probe 3 or luminol (5.0×10^−5 M).

A short description of another series: Acute toxicity in mice. Particulars: mouse, in vivo. From the text:
The results are summarized in (a).

Series [3] concerns HRP. In words: Oxidation by H2O2 catalyzed by trace HRP in vitro. In kind it is biochemical, horseradish.
For series [4], the target named is T1, HRP (Armoracia rusticana, UniProt P00433).
T1 construct: purchased Sigma-Aldrich
T1 sequence (P00433 31-338 limits assumed): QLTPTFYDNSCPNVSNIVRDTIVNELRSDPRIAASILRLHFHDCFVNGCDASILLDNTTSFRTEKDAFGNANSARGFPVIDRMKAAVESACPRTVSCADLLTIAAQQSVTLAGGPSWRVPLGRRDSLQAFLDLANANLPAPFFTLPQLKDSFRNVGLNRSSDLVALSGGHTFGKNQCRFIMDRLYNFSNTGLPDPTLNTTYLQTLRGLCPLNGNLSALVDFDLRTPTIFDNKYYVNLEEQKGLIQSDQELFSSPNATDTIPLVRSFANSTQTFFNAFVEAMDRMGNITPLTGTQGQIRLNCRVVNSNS
Briefly: CLI of subcutaneously injected HRP in nude mice. The class given is in vivo. The method, then: CLI of HRP in the same nude mouse with the use of compound 3 as probe (7.2 mg per kg body weight, intraperitoneally injected). Against PBS-only control in the left foreleg, the total activity of HRP introduced into the right foreleg, the left hind leg, and the right hind leg were 0.0250, 0.125, and 0.250 U, respectively. The moment when the administration of 3 was completed was set as −20 min (panel (i)) with 0 min (panel (ii)) being the moment when the subcutaneous injection of HRP was finished. The circles in panel (ii) indicate both the sites of HRP introduction and the ROI for which photon-counting integration was performed.
Imaging of HRP was acquired in nude mice pre-injected with compound 3 (720 μg per kg body weight) against a control mouse intraperitoneally injected with luminol. […] To achieve significant CL intensity and to assure the accuracy of photon counting, the probe at a concentration of 720 μg/kg was used in subsequent studies in nude mice whose right foreleg, left hind leg, and right hind leg were injected with HRP of a total activity of 12.5 U, 25.0 U, and 50.0 U, respectively. Significant luminescence was produced and remained stable in a time window of 40 to 120 minutes following the introduction of HRP in each of the legs (data not shown).
In subsequent experiments, a dose of 7.2 mg/kg of compound 3 was used with which a total activity of HRP as low as 0.025 U could be detected. The CL produced intensified as the concentration of HRP increased, yielding a positive linear relationship.
Nude mice used in this work, each weighing 20-26 g, were obtained from the Laboratory Animal Center of the Fourth Military Medical University, China. Research and animal sacrifice protocols are in accordance with the principles and guidelines adopted by the Fourth Military Medical University. The mice were kept for an acclimatization period of 7 days under laboratory conditions (temperature maintained at 22±2° C., 12-hr cycles of alternating illumination and darkness, and free access to food and water) prior to any imaging experiments. […]

In another series the target is T2, HRP-Ab (Armoracia rusticana, UniProt P00433).
T2 construct: purchased ZSGB-Bio Inc. ZB2305
T2 sequence (P00433 31-338 limits assumed): T1 sequence (P00433 31-338 limits assumed)
In words: CLI of HRP-labeled goat anti-mouse IgG (HRP-Ab) in nude mice. The class given is in vivo. How it is done:
The use of the probe was validated using an enzyme-linked immunosorbent assay (ELISA) by imaging in nude mice the HRP-labeled goat anti-mouse IgG (HRP-Ab), a commercially available and commonly used HRP-antibody conjugate. To assess the sensitivity of the CLI, different amounts of the conjugate were administered to three of the legs of a nude mouse with the left foreleg injected with PBS only being the control. […] The brightness of the emission is proportional to the amount of HRP-Ab present. […] However, in the two hind legs, whose total activity of HRP is at 0.015 and 0.030 U, respectively, the emission of light was vivid, and the reduction in luminescence intensity was only about 10% after 60 minutes following the probe administration.
Nude mice used in this work, each weighing 20-26 g, were obtained from the Laboratory Animal Center of the Fourth Military Medical University, China. Research and animal sacrifice protocols are in accordance with the principles and guidelines adopted by the Fourth Military Medical University. The mice were kept for an acclimatization period of 7 days under laboratory conditions (temperature maintained at 22±2° C., 12-hr cycles of alternating illumination and darkness, and free access to food and water) prior to any imaging experiments. Nude mice were anesthetized by isoflurane inhalation, following which 200 μL of a solution of compound 3 or luminol in PBS of pH 7.4 was injected intraperitoneally. For the imaging of HPR or HRP-Ab, the probe solution (2.0×10^−3 M) was first injected, followed by the subcutaneous injection 20 minutes after of PBS and HRP (variable amount in 0.01 M PBS) solutions into the legs of nude mice. The control experiments with the use of luminol were conducted under otherwise identical conditions. IVIS 200 bioluminescence imaging system (Caliper Life Sciences) (f/stop, 1; no optical filter) was used for all imaging experiments. Exposure time was set at 5 minutes with moderate sensitivity, and the binning and field of view (FOV) are 8 and 13.3 cm, respectively. […]

The conditions of series [5]: mouse, in vivo. The method, then:
Nude mice (24-26 g) were anesthetized followed by intraperitoneal injection of 3 or 2 (in 0.01 M PBS pH 7.4) using a dose of 660 μg of 3 or 2 per kilogram of the mouse body weight. The mice were housed individually and received food ad libitum. Urine was collected every 1 to 2 hours, and the collected samples were diluted to appropriate concentration with PBS. Probe 3 in each urine sample was quantified by comparing the intensity of its chemiluminescence resulting from its oxidation by NaClO with those of standard solutions. […] The potential toxicity of the probe was further evaluated with a sample of 50 mice using a dose of probe 3 at 72 mg/kg body weight of mouse.

The nature of series [6]: Solubility in alkaline and PBS solutions. The class given is physicochemical. The note with it: alkaline and phosphate-buffered saline solutions (PBS, pH=7.4). How it is done: Oxidation of compound 3 was accompanied by vivid green luminescence when the excited oxidation product (compound 2) underwent deactivation (see FIG. 1).
Solids of compound 3 or luminol were dissolved in 0.01 M NaOH to a final concentration of 8.0×10^−3 M, and the resulting solutions were stored at 4° C. in the absence of light. The solutions were further diluted by using sterile phosphate-buffered saline (PBS, 0.01 M and pH 7.4) as desired in various studies. PMA was dissolved in DMSO to prepare 500 µg/ml solution. HRP was freshly prepared by dilution using sterile PBS.

The nature of series [7]: In vitro chemiluminescence from oxidation by non-H2O2 ROS. The note with it: PBS pH 7.4, ROS 1.0×10^−3 M, probe 1.0×10^−6 M. The method, then: as §1
Series [8] has as its system mechanical crush and syringe needle piecing. In words: CLI of mechanical injuries on the tail. The note with it: 200 μL of 2.0×10^−4 M; 0, 20, 40 min. The class given is in vivo, mice. The method, then:
as §2

The next series deals with inflammation. Briefly: CLI of inflammation caused by intramuscular injection of PBS. The class given is in vivo, nude mice. The note with it: PBS intramuscularly two days prior; compared with 18FDG-PET/CT. How it is done: Furthermore, inflammation caused by intramuscular injection of PBS was also clearly imaged using probe 3 and in comparison with results using PET/CT (data not shown). Nude mice were intramuscularly injected with PBS two days prior to said imaging experiments. For the verification of the induced inflammation, 18-Fluorodeoxyglucose-Positron emission tomography/Computed tomography (18FDG-PET/CT) scan, from feet to head, was performed 12 h after the CLI experiment. The test mouse was anesthetized with isoflurane inhalation followed by intraperitoneal injection of 3.7 MBq of ^18FDG. An uptake time of 60 min was allowed before acquisition.

Bounds are passed on as bounds.

The values below come from US10912846B2, “Molecular probes for chemiluminescence imaging and in vivo detection of target molecules” (ARIZONA BOARD OF REGENTS ON BEHALF OF THE UNIVERSITY OF …, priority 2015, dated 2021).

For the molecule `Nc1cccc2c(=O)[nH][nH]c(=O)c12` [luminol, Luminol, reference compound], the “time for luminescence to decay to the baseline” value in [1] (H2O2 1.0×10^−2 M, PMT −800 V) was “about 600 s”. In addition, in the series with acute dermatitis, the “CLI of acute dermatitis” value was “failed to produce any detectable signals”.

As for `O=C(O)c1cc2c(=O)[nH][nH]c(=O)c2cc1-c1c2ccc(=O)cc-2oc2cc(O)ccc12` [compound 3], the “identification of sites of inflammation by luminescence” value (in the series with gingival hemorrhage; in series [8]) was “clearly identified” each time. In addition, in [2], the “sensitivity for detection of ROS compared with luminol” value is reported as “much more sensitive”. Further, in series [1] (H2O2 1.0×10^−2 M, PMT −800 V), the duration of luminescence result was “more than 18 days”. Further, the “sensitivity toward H2O2 compared with the other ROS” value in [1] (PMT −800 V needed for detection) was “insensitivity”. The acute toxicity result in the series “Acute toxicity in mice” is listed as “does not appear that the probe or the resulting luminophore has significant acute toxicity”. The “luminescence from oxidation by H2O2” value with HRP [3] (HRP 5.0×10−5 mg/mL added) is “intense emission of a green light”; in the series on HRP [3] (no HRP, probe 5.0×10^−3 M, H2O2 1.0×10^−4 M), “no detectable luminescence”. Further, the “HRP activity at which production of CL appeared saturated” value on HRP [4] (720 μg/kg) is on record as “about 25.0 U”. Also, the “lowest total activity of HRP detected” value on HRP [4] (7.2 mg/kg) is reported as no more than 0.025 U. Moreover, the “dosage at which CL could be detected” value on HRP [4] (mice) is on record as “about 2 μg/kg”. Further, at HRP-Ab (7.2 mg/kg IP, hind legs 0.015 and 0.030 U, after 60 minutes), the “reduction in luminescence intensity” value is “about 10%”. Besides, the “luminescence at HRP-Ab site” value was “vivid” at HRP-Ab (hind legs, 0.015 and 0.030 U); “inadequate to produce any significant photon count or luminescence” on HRP-Ab (right foreleg, 0.0030 U HRP-Ab). Besides, in series [5], the “metabolism during the imaging procedure” value is “not quickly metabolized”. In addition, in [5], the “uptake, IP versus IV injection” value is given as “comparable uptakes”. Further, in series [5] (nude), the “probe cleared by uresis” value is “about 90%”. The solubility entry in series [6] is “readily soluble”. Besides, the “CL response / sensitivity to ROS compared with luminol” value is listed as “more sensitive” in series [7] and “much stronger responses” in series [7] (listed as probe 3). Further, in the series on acute dermatitis, the “CLI of acute dermatitis” value is recorded as “highly efficient”. In addition, the imaging of inflammation result with inflammation was “clearly showed inflammation”.
